Experimental data reported in paper PMC7942396, “Drug Repurposing Screen for Compounds Inhibiting the Cytopathic Effect of SARS-CoV-2” (Frontiers in Pharmacology, 2021).
Where a name gives a salt, the structure may show the parent alone. Read-outs that look alike come from different tables or passages of the source.

How the values were obtained:
[1] = test system: SARS-CoV-2 (USA_WA1/2020); test: microbe, parasite or virus in culture; assay type: cell-based; settings: for EC50: read-out: CPE EC50
Vero E6 cells = Vero E6 cells without virus; for CC50: read-out: Cytotox CC50
[2] = SARS-CoV-2 CPE assay, Vero E6 cells, confirmed anti-SARS-CoV-2 compounds
[3] = SARS-CoV-2 CPE assay, Vero E6 cells, efficacy
[4] = SARS-CoV-2 CPE assay, Vero E6 cells
[5] = […], DMSO 0%, no-virus control 100%, hit confirmation

Row | Structure (SMILES) | EC50 [1, 2] [µM] | CPE % Efficacy [1, 3] [%] | % Cytotox (Vero E6 cells; cytotoxicity counter-assay) [%] | CC50 (Vero E6 cells; cytotoxicity counter-assay) [µM] | CPE % Efficacy [1, 4] [%] | EC50 [1, 4] [µM] | CPE % Efficacy [1, 5] [%] | EC50 [1] [µM] | % Cytotox (Vero E6 cells; 72 h) [%]
1 | Cc1c(NC(=O)OC[C@@H]2COCCN2)cn2ncnc(Nc3ccc4c(cnn4Cc4cccc(F)c4)c3)c12 [AC480 (BMS-599626)] | 11.2 | 62.3 | 67.2 | 12.6 |  |  |  |  | 
2 | CN(C)CC(=O)N1CCC(c2ccc(NC(=O)c3nc(C#N)c[nH]3)c(C3=CCCCC3)c2)CC1 [JNJ-28312141] |  |  | 60.9 | 12.6 | 37.8 | 14.1 |  |  | 
3 | Cc1nc2ccc(Oc3ccc(F)cc3)cc2c(=O)n1C[C@H]1CCCN(C(C)C)C1 [YIL 781] |  |  | 0.0 |  | 53.5 | 11.2 |  |  | 
4 | COc1ccc(-c2cc(C(O)C3CCCCN3)c3ccccc3n2)cc1.Cl.Cl (stereo not shown) [NSC-23925] | 5.62 | 40.3 | 49.3 | 10 |  |  |  |  | 
5 | CCCCCCCCCCCCCCCc1cccc(O)c1C(=O)O [Anacardic Acid] | 3.98 | 89.6 | 72.9 |  |  |  |  |  | 
6 | COc1ccccc1N1CCN(CC[C@@](C)(C(=O)C2CCCCC2)c2ccccc2)CC1 [(R)-(-)-LY 426965 dihydrochloride, reference compound] |  |  |  |  |  |  | 110.7 | 10 | <30
7 | CC(C)c1ccc(NC(=O)C(c2ccccc2)N(C)C(=O)Cc2c[nH]c3ccccc23)cc1 (stereo not shown) [PG-01] | 3.55 | 98.0 | 110.5 |  |  |  |  |  | 
8 | O=C(/C=C/c1ccc(Cl)cc1)N1CCC2(CC1)CN(Cc1ccc(Cl)c(Cl)c1)C(=O)O2 [GSK-682753A] |  |  | 38.6 | 12.6 | 67.7 | 11.2 |  |  | 
9 | O=S(=O)(c1cccc2c(I)cccc12)N1CCCNCC1 [ML-7] |  |  | 20.3 | 19.9 | 36.2 | 12.6 |  |  | 
10 | CC(C)c1cnn2c(NCc3ccccc3)cc(NCCCCCCN)nc12 [BS-181] | 10 | 83.4 | 32.0 |  |  |  |  |  | 
11 | COc1cccc2c1CCCC2CCCN1CCN(C2CCCCC2)CC1 (stereo not shown) [PB-28] |  |  | 19.5 | 12.6 | 88.6 | 11.2 |  |  | 
12 | O=S(=O)(c1cccc2c(Cl)cccc12)N1CCCNCC1 [ML-9] |  |  | 23.3 | 11.2 | 91.0 | 12.6 |  |  | 
13 | Cl.Oc1ccc2c3c1O[C@H]1c4[nH]c5ccc(N=C=S)cc5c4C[C@@]4(O)[C@@H](C2)N(CC2CC2)CC[C@]314 [Naltrindole isothiocyanate hydrochloride, reference compound] |  |  |  |  |  |  | 114.7 | 10 | <30
14 | COc1cccc(-n2c(=O)[nH]c3cc(Cl)n(-c4ccc(-c5cccc(OC)c5O)cc4)c3c2=O)c1 [GSK621] | 11.2 | 77.9 | 58.4 |  |  |  |  |  | 
15 | N#Cc1c(C2CCNCC2)cc(-c2c(O)cccc2OCC2CC2)nc1N [IKK-2 inhibitor VIII, reference compound] |  |  |  |  |  |  | 91.7 | 7.1 | <30
16 | O=S(=O)(NCC1CC1)c1ccc(Nc2nccc(N3CCCc4cc(O)ccc43)n2)cc1 [Pyrintegrin] | 0.79 | 76.3 | 70.3 | 3.98 |  |  |  |  | 
17 | O=C1NC(=O)/C(=C/c2ccc3c(c2)OC(F)(F)O3)S1 [AS-604850] |  |  | 31.8 | 11.2 | 49.2 | 12.6 |  |  | 
18 | O=c1[nH]c2ccccc2n1C1CCN(Cc2ccc(-c3nc4cc5nc[nH]c5cc4nc3-c3ccccc3)cc2)CC1 [Akt-I-1,2] |  |  | 34.2 | 12.6 | 91.3 | 11.2 |  |  | 
19 | CN1CCCCC1Cn1cc(C(=O)c2cc([N+](=O)[O-])ccc2I)c2ccccc21 (stereo not shown) [AM1241, reference compound] |  |  |  |  |  |  | 97.6 | 10 | <30
20 | C/C1=C/CCC2=CC(OC2=O)C(C)(C)/C=C\C1=O (stereo not shown) [Asteriscunolide D, reference compound] |  |  |  |  |  |  | 93.3 | 10 | <30
21 | CC1(CN2CCC(n3c(=O)[nH]c4ccccc43)CC2)OCc2ccccc2-n2cccc21.O=C(O)/C=C\C(=O)O (stereo not shown) [Zaldaride maleate] | 11.2 | 81.7 | 0.0 |  |  |  |  |  | 
22 | COc1ccc(S(=O)(=O)N(CCO)c2ccccc2CN(C)C/C=C/c2ccc(Cl)cc2)cc1 [KN-93] | 11.2 | 69.0 | 34.4 | 11.2 |  |  |  |  | 
23 | O=C1NC(=O)/C(=C/c2cccc(C(F)(F)F)c2)S1 [SMI-4a] |  |  | 29.5 |  | 43.9 | 12.6 |  |  | 

Row | Structure (SMILES) | EC50 [1, 2] [µM] | CPE % Efficacy [1, 3] [%] | % Cytotox (Vero E6 cells; cytotoxicity counter-assay) [%] | CC50 (Vero E6 cells; cytotoxicity counter-assay) [µM] | CPE % Efficacy [1, 4] [%] | EC50 [1, 4] [µM] | CPE % Efficacy [1, 5] [%] | EC50 [1] [µM] | % Cytotox (Vero E6 cells; 72 h) [%]
24 | O=C(O)c1ccc(CCCc2ccc(OCCc3ccc(F)cc3)cc2)o1 [D-942] | 0.14 | 120.3 | 53.7 | 11.2 |  |  |  |  | 
25 | NC(=O)c1ccc2nc(-c3ccc(Oc4ccc(Cl)cc4)cc3)[nH]c2c1 [BML-277] |  | 73.6 | 33.9 |  |  |  |  |  | 
26 | Cn1ncc2cc(-c3cnc(N)c(Cl)c3N3CCC4(CCNC4=O)CC3)ccc21 [CCT-251921] | 2.82 | 87.9 | 39.8 |  |  |  |  |  | 
27 | COc1cccc([C@@H](C)NCCCc2ccccc2Cl)c1 [NPS-R568] | 11.2 | 78.0 | 15.8 | 12.6 |  |  |  |  | 
28 | COc1cc(N2CCN(C)CC2)ccc1Nc1ncc2c(n1)N(C)c1ccccc1C(=O)N2 [XMD8-87] |  |  | 32.0 |  | 88.0 | 11.2 |  |  | 
29 | COc1ccc2sc(NC(c3ccc(OC(F)F)cc3)c3ccc4cccnc4c3O)nc2c1 (stereo not shown) [KIN1408] | 0.89 | 69.8 | 77.9 | 0.71 |  |  |  |  | 
30 | Cn1cc(-c2ccc(-c3cncc(Cl)c3N3CCC4(CCNC4=O)CC3)cc2)cn1 [CCT-251545] |  |  | 0.0 |  | 65.2 | 14.1 |  |  | 
31 | Nc1ncnc2c1c(-c1cccc(OCc3ccccc3)c1)cn2C1CC(CN2CCCC2)C1 (stereo not shown) [ADW-742] | 7.94 | 55.7 | 106.8 | 12.6 |  |  |  |  | 
32 | Cc1c(CCOc2ccc(C(=O)O)cc2)c2cc(Cl)ccc2n1C(c1ccccc1)c1ccccc1 [CDIBA] |  |  | 77.1 | 12.6 | 52.2 | 14.1 |  |  | 
33 | CCN(CC)CCCS(=O)(=O)N[C@H](CCc1ccccc1)c1nc(Cc2ccc(Br)cc2)no1 [CpdD hydrochloride, reference compound] |  |  |  |  |  |  | 96.9 | 10 | <30
34 | CN(C)S(=O)(=O)c1ccc(NC(=S)N2CCC(C(O)(c3ccccc3)c3ccccc3)CC2)cc1 [CYM 9484] | 11.2 | 30.8 | 13.8 | 19.9 |  |  |  |  | 
35 | c1ccc(-c2ccc(CNc3nc(-c4ccccn4)nnc3-c3ccccc3)cc2)cc1 [ML-228] | 0.63 | 69.4 | 74.8 | 0.56 |  |  |  |  | 
36 | O[C@@H]1[C@@H](O)[C@@H](O)CO[C@H]1O [alpha-L-Arabinopyranose, reference compound] |  |  |  |  |  |  | 104.0 | 2.4 | <30
37 | Cc1ccc(NC(=O)C(C)C)cc1C1CCN(Cc2ccc(Oc3ccc(F)c(F)c3)cc2)CC1.Cl [SNAP 94847 hydrochloride] | 4.47 | 60.0 | 95.1 | 12.6 |  |  |  |  | 
38 | Cc1nc(Nc2cnn(C3CCNCC3)c2)nc2c1N(C)C(=O)c1cc3ccccc3cc1N2C [HTH-01-015] | 11.2 | 95.2 | 40.5 | 12.6 |  |  |  |  | 
39 | COc1cc2c(Nc3ccc(NC(=O)c4ccccc4)cc3)ncnc2cc1OCCCN1CCOCC1 [ZM-447439] |  |  | 38.3 | 12.6 | 49.6 | 14.1 |  |  | 
40 | O=C(c1ccc(Nc2nccc(-c3cc4ccccc4s3)n2)cc1)N1CCC(N2CCCC2)CC1 [IKK-16] | 3.55 | 110.2 | 107.2 | 10 |  |  |  |  | 
41 | COc1cc2nc(-c3ccc(N4CCN(C)CC4)cc3)nc(NCCN3CCOCC3)c2cc1OC [CPG-52364] | 11.2 | 63.1 | 41.6 | 10 |  |  |  |  | 
42 | Cl.Fc1ccc2c(CCNCc3cccc(OCC(F)(F)C(F)F)c3)c[nH]c2c1 [Lu AE58054 hydrochloride, reference compound] |  |  |  |  |  |  | 97.2 | 10 | <30
43 | CCOC(=O)N[C@@H]1CC[C@@H]2[C@@H](C1)C[C@H]1C(=O)O[C@H](C)[C@H]1[C@H]2/C=C/c1ccc(-c2cccc(F)c2)cn1.O=S(=O)(O)O [Vorapaxar Sulfate] | 4.47 | 57.7 | 32.4 | 12.6 |  |  |  |  | 
44 | C/C(=N\NC(=O)c1cccc(S(=O)(=O)N2CCOCC2)c1)c1cc(Cl)ccc1O [SP2509] | 1.26 | 42.0 | 67.4 | 1 |  |  |  |  | 
45 | Cn1nc(C(C)(C)C)cc1C(=O)N[C@@H](Cc1cccc(Cl)c1)C(=O)NCC#N [Cathepsin Inhibitor 1, reference compound] |  |  |  |  |  |  | 114.4 | 0.25 | <30
46 | CC(C)CCC[C@@H](C)[C@H]1CC[C@H]2[C@@H]3CC=C4C[C@@H](OC(=O)NCCN(C)C)CC[C@]4(C)[C@H]3CC[C@]12C.Cl | 11.2 | 40.5 | 37.0 | 10 |  |  |  |  | 
